Laboratory results from EP0519427A2, “N-substituted-3-iodopropiolamide, production and use thereof” (priority 1991, dated 1992).

Key:
[1] = test system: Aureobasidium pullulans (de Bary) Arnaud IFO 6353; assay: Fungicide activity for wood fungicide (rating of fungi growth on treated wood); format: cell-based; details: beech specimens dipped 3 min in fungicide solution, 4 weeks culture; rating 0 (no growth) to 3; mean of 6 specimens
Procedure: This test was conducted according to Specification No.2 of Japan Wood Preserving Association, enacted in 1979 and titled "Test methods of fungicide activity for wood fungicide".
• ① Aspergillus niger van Tieghem IFO 6341 = ATCC 6275 • ② Penicillium funiculosum Thom (formerly : Penicillium luteum Zukal) IFO 6345 = ATCC 9644 • ③ Rhizopus javanicus Takeda (formerly : Rhizopus nigricans Ehrenberg S.N. 32) IFO 6354 • ④ Aureobasidium pullulans (de Bary) Arnaud IFO 6353 = IAM (H. Iizuka, F-24) • ⑤ Gliocladium virens Miller, Gidden & Fosteb IFO 6355 = ATCC 9645 (formerly : Trichoderma viride, T.I.)
The fungi ① , ② , ③ and ⑤ are classified as fungi imperfecti, and the fungus ④ as blue stain fungus.
The Culture medium comprised the potato-sap agar culture medium (specified in the Japan Industrial Standard (JIS) Z 2911- 1960) of 50 ml, put in the conical flask of 100 ml, sterilized by steam at 1.4-1.6 kgf/cm² .G (137.2-156.8 KPa) for 30 minutes.
The fungi to be used were inoculated into the culture medium specified in the previous section and were cultured at 26 ± 2 °C under the relative humidity of 70-80 % for two weeks.
The potato sap of 50 ml, sterilized, cooled to room temperature and to which dioctyl sodium sulfosuccinate, a wetting agent, was added so as to become 0.005 %, was dropped to the fully breeding fungi layer, and was agitated with a platinum spatula in such a way that the spore was torn off. The resulting liquid filtered by sterilized gauze was the spore suspension.
3-5-1 A Petri dish measured 90-100 mm in diameter and 20 mm in height.
3-5-2 Agar liquid (which has no nutrients) of 2 % sterilized by steam was dropped onto the Petri dish sterilized by dry heat, and then was solidified.
3-5-3 Three mm diameter sterilized glass bars or plastic nets made of polypropylene, etc. were placed to prevent the test specimens from touching with agar directly.
3-6-1 The type of trees for wood specimens was beech. The cross section was of grain face, and the dimension was 20 mm wide 3 mm thick and 50 mm long.
3-6-2 Wood specimens were supplied with nutrients in such a way that they were dipped into the potato-sap (the one in the section 3-2, but agar was not added) for 3 minutes.
3-6-3 Nutrient-supplied wood specimens, after drying at 60 °C, were used for testing immediately. They were temporarily stored at 0 °C, but they were served to tests as soon as possible.
The test specimens were of two types, treated and untreated speciments. The treated specimens referred to the one treated with fungicide. The untreated specimens were of two types, the one really untreated and the other treated with solvent only.
3-7-2-1 Nutrients-supplied wood specimens were dried at 60 ± 2 °C, and then their weights (W₀) were measured. Test specimens of 10-20 pieces were piled up in a one liter beaker in such a way that two specimens constant space apart from each other were alternately put on the other two specimens also constant space apart from each other. On the top of the two specimens, a weight was placed. Through the test specimens thus arranged, the fungicide solution was introduced. The level of the fungicide solution was one centimeter above the top specimens. The test specimens were dipped for three minutes after the fungicide solution introduction.
After finishing dipping, the test specimens were wiped softly, and then the weights (W₁) were measured immediately. As control experiment, the same procedure as the above was done using solvent without fungicide.
3-7-2-2 The amounts of solution pick-up and fungicide pick-up were calculated with the following equations: The amount of solution absorption: RL = W₁ - W₀ [formula] The amount of fungicide absorption: Rc = RL × fungicide concentration [formula] 3-7-2-3 Wood specimens treated were placed without contacting each other, then were air-dried for two days, and then served as the treated test specimens. […]

wood rot fungi = assay: Preserving activity for wood preservatives, overall statement for both fungi; format: cell-based, Tyromyces palustris, Coriolus versicolor; details: summary of Table 2
Procedure: This test was conducted according to Specification No.1 of Japan Wood Preserving Association, enacted in 1979, amended in 1989 and titled "Test methods of preserving activity for wood preservatives used in the coating, spraying and dipping treatment".
• ① Tyromyces palustris (Ber. et Curt.) Murr., FFPRI 0507 --"Ouzuratake" • ② Coriolus versicolor(L. ex Fr.) Quélet, FFPRI 1030 --"Kawaratake"
These two fungi are classified as wood rot fungi.
Culture media comprised culture jars (cylindrical jars of bottom diameter 8-9 cm, opening diameter 6-7 cm and height 15-18 cm), in which quartz sand of 250 g (the size of which corresponds to 20-30 mesh) was put first, and then the solution of 70 ml containing 2.0 % malt extracts and 1.0 % peptone was introduced, over which chips of the beech or other broadleaf tree were spread at about 2 mm thickness, and then sterilized at 120 °C for 30 minutes in the wet heated sterilizer.
Fungi were cultured at 26 ± 2 °C with shaking using the culture solution of 2.0 % malt extracts and 1.0 % peptone. After sufficient breeding was obtained, the fungi solution of about 3 ml was spread all over the culture medium, and then the fungi were cultured at 26 ± 2 °C with the relative humidity of over 70 %. After 10-15 days when the fungi layer sufficiently covered the culture medium, the fungi were served for the tests.
Wood specimens were the sapwood of intact cedar and beech, the dimension of which was 5 mm thick, 20 mm wide and 40 mm long. The grain face was of 20 mm width and 40 mm length. The side faces were treated with cold-setting epoxy resin.
The antimicrobial operation was performed with specifying types of fungi for corresponding type of trees. The combinations were as follows: Cedar----Tyromyces palustris ("Ouzuratake") Beech----Coriolus versicolor ("Kawaratake")
The test specimens were of two types, treated and untreated specimens, respectively.
The treated specimens referred to the wood specimens coated by brushing, spraying or dipping with wood preservatives. The amount of applied preservatives was 110 ± 10 g/m².
The amount of applied preservatives for each test specimen was calculated by the following equation:
The amount of applied preservatives (g/m²)=(W₁-W₂)/A wherein W₁ : weight of the test specimen after absorption(g), W₂ : weight of the test specimen before absorption(g) and A: surface area of test specimen except both butt surfaces (m²)
2-7-1 The test specimens prepared in the previous section were dried at 60 ± 2 °C with a recirculating dryer for 48 hours, and were allowed to stand in a desiccator for about 30 minutes, and then the weight (W₃) was measured to an accuracy of 0.01 g.
2-7-2 Three of each treated and untreated specimens were assembled in the Teflon casing. After sterilizing, the two assemblies were put on their 40 × 5 mm face on the fungi layer in the separate jar. They were kept at 26 ± 2 °C under the relative humidity of over 70 % for eight weeks.
2-7-3 After the eight weeks had elapsed, the test specimens were taken out, and mycelia and other attachments of them were removed neatly. After air-drying for 24 hours, the test specimens were dried at 60 ± 2 °C in a recirculating dryer for 48 hours, and were allowed to stand in a desiccator for about 30 minutes, and then the weight (W₄) was measured to an accuracy of 0.01 g.
The test results were presented by the ratio of average weight loss of test specimens due to antimicrobial operation. The standard deviation and coefficient of variation were also determined. The ratio of weight loss for each test specimen was calculated by the following equation, and its average was also determined: The ratio of weight loss(%) = (W₃ - W₄) / W₃ × 100 [formula] . Lower value of the ratio of weight loss corresponds to higher wood preserving activity. […]

Compound | Average rating value, A₄ : Aureobasidium pullulans (IFO 6353) [1] | wood preserving activity (statement in words) (wood rot fungi)
CCCCCCCNC(=O)C#CI [Example 9, N-(n-Heptyl)-3-iodopropiolamide] | 0.3 | 
CC(C)CNC(=O)C#CI [Example 6, N-Isobutyl-3-iodopropiolamide] | 0.0 | excellent wood preserving activity
CCCCCCCCCNC(=O)C#CI [Example 11, N-(n-Nonyl)-3-iodopropiolamide] | 1.7 | 
CCCCCNC(=O)C#CI [Example 7, N-(n-Pentyl)-3-iodopropiolamide] | 0.0 | excellent wood preserving activity
CCCCCCNC(=O)C#CI [Example 8, N-(n-Hexyl)-3-iodopropiolamide] | 0.0 | excellent wood preserving activity
CCCCNC(=O)C#CI [Example 4, N-(n-Butyl)-3-iodopropiolamide] | 0.0 | excellent wood preserving activity
CCCCCCCCCCNC(=O)C#CI [Example 2, N-(n-Decyl)-3-iodopropiolamide] | 0.0 | excellent wood preserving activity
CCCCCCCCNC(=O)C#CI [Example 10, N-(n-Octyl)-3-iodopropiolamide] | 0.0 | 
CCC(C)NC(=O)C#CI (centres unmarked) [Example 5, N-(sec-Butyl)-3-iodopropiolamide] | 0.0 | excellent wood preserving activity
CC(C)(C)NC(=O)C#CI [Example 1, N-(tert-Butyl)-3-iodopropiolamide] | 0.0 | excellent wood preserving activity
